Data reported in patent US8039514B2, “Sulfonamide compounds and use thereof” (Asahi Kasei Pharma Corporation, priority 2008, dated 2011).

Biological target: T1, human calcium-sensing receptor (CaSR) (Homo sapiens, UniProt P41180)
T1 construct: expressed in transfected cells
T1 sequence (P41180 20-1078): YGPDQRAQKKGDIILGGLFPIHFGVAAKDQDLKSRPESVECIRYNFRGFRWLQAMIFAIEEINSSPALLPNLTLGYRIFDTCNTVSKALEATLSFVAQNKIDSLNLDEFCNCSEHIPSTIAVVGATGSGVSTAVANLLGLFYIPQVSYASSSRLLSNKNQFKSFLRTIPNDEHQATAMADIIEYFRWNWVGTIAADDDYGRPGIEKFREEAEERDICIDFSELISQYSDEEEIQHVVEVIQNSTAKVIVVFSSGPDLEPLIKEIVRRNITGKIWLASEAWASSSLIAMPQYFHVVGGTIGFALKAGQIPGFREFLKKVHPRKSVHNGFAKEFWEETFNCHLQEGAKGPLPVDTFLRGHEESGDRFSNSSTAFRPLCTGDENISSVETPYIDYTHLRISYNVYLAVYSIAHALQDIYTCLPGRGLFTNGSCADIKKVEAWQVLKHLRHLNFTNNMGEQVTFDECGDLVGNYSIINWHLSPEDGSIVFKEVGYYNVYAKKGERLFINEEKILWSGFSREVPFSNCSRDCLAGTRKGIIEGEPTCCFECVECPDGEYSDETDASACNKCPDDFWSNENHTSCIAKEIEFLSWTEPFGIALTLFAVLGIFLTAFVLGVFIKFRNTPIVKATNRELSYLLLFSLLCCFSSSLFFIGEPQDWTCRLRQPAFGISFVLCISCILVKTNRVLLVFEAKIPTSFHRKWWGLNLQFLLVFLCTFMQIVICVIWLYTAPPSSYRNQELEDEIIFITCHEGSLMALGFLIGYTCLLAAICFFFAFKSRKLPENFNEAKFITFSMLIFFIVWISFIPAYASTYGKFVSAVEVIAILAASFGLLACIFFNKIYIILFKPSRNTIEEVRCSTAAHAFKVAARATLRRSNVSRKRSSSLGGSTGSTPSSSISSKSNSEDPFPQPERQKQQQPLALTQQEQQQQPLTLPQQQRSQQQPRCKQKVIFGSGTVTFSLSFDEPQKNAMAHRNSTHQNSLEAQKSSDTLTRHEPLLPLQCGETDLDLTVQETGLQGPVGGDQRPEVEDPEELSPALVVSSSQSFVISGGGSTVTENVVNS
Experiment: intracellular Ca assay, CaSR antagonist activity in HEK293/hCaSR cells
Format: cell-based
Conditions: Fura2-AM, inhibition of response to calcium chloride ligand solution, read-out: IC50 values according to the intracellular Ca assay (CaSR antagonist activity)
Experimental: HEK293 cells stably expressing human calcium-sensing receptor (CaSR) (termed HEK293/hCaSR cells) were used. HEK293/hCaSR cells were cultured in a culture medium [DMEM medium containing 0.5 mg/mL Geneticin, 50 Unit/mL penicillin, 50 μg/mL streptomycin and 10% fetal bovine serum (FBS), all manufactured by Invitrogen] to semiconfluent in an incubator at 37° C. under 5% carbon dioxide atmosphere.
Cultured cells were washed with phosphate buffered saline (PBS(−), manufactured by Dainippon Sumitomo Pharmaceutical Company) which had been prewarmed to 37° C., added with PBS(−) containing 10 mM ethylenediamine tetraacetic acid (EDTA), and then incubated in an incubator at 37° C. for 10 minutes. After adding the culture medium to separate the cells, cell suspension was transferred to a centrifuge tube. Cells were collected by centrifuge at 1,500 rpm for 3 minutes, and resuspended in Ca assay buffer [20 mM HEPES buffer (pH 7.4), 115 mM sodium chloride, 5.4 mM potassium chloride, 0.8 mM magnesium chloride, 0.8 mM calcium chloride, 13.8 mM D(+)-glucose (all manufactured by Wako Pure Chemicals) and 0.1% bovine serum albumin (manufactured by SIGMA)] containing 0.2% Pluronic F-127 (manufactured by Molecular Probes) and […] Fura2-AM (manufactured by DOJINDO LABORATORIES) to obtain a cell suspension of 5×10^6 cells/mL. After incubating at 37° C. for 30 minutes, the cells were washed twice with the Ca assay buffer and suspended in the same buffer to obtain a cell suspension of 1×10^6 cells/60 μL. 60 μL of the cell suspension was aliquoted to each well of a 96 well UV microplate (manufactured by Corning Co.) to give a cell plate.
The test compound was diluted with the Ca assay buffer to five times the final concentration and then 80 μL of the diluted compound was applied to each well of a 96 well round bottomed microplate (manufactured by Corning Co.) to give a sample plate. 80 μL of the Ca assay buffer containing 7.5 mM calcium chloride (i.e., ligand solution) was applied to each well of a 96 well round bottomed microplate to give a ligand plate. Then, thus prepared sample plate, ligand plate, and the cell plate were placed in Functional Drug Screening System (FDSS) 4000 (manufactured by Hamamatsu Photonics K.K.) which had been preswitched on and prewarmed to 37° C. Measurements were then carried out as follows. After incubating the cell plate for 180 seconds, fluorescence intensity was measured every two seconds (excitation wavelength; 340 nm and 380 nm, measurement wavelength; 500 nm). After the measurement for 40 seconds, 20 μL of the test compound solution from the sample plate was added to the cell plate, followed by continuous measurement for 160 seconds. Then, 20 μL of the ligand solution from the ligand plate was added to the cell plate, followed by continuous measurement for 100 seconds.
Amount of change in intracellular Ca concentration is indicated as a peak height of the ratio of the fluorescence intensity with excitation of 340 nm and 380 nm (i.e., fluorescence intensity with excitation at 340 nm/fluorescence intensity with excitation at 380 nm) that is obtained from the difference between the maximum ratio after adding the ligand solution and the ratio before adding the ligand solution. Further, when the peak height obtained from the Ca assay buffer containing no test compound has inhibition ratio of 0% while the peak height obtained from the Ca assay buffer containing no calcium chloride as a ligand solution has inhibition ratio of 100%, inhibition ratio for each test compound (i.e., CaSR antagonist activity) was calculated.

**Q.** `CN(C[C@H](O)CNC(C)(C)CC1Cc2ccccc2C1)S(=O)(=O)c1c(Cl)cc(-c2cccc(C(=O)O)c2)cc1Cl` [Exp. 3-126, (R)-3′,5′-dichloro-4′-(N-(3-(1-(2,3-dihydro-1H-inden-2-yl)-2-methylpropan-2-ylamino)-2-hydroxypropyl)-N-methylsulfamoyl)biphenyl-3-carboxylic acid] was tested. Which IC50 did it give?
**A.** Its IC50 is at most 300 nM.

**Q.** How did the IC50 turn out when `CCc1cc(-c2ccc(CCC(=O)O)cc2)ccc1S(=O)(=O)N(C)C[C@H](O)CNC(C)(C)CCCc1cccc(F)c1` [Exp. 9-90, (R)-3-(3′-ethyl-4′-(N-(3-(5-(3-fluorophenyl)-2-methylpentan-2-ylamino)-2-hydroxypropyl)-N-methylsulfamoyl)biphenyl-4-yl)propionic acid] was run?
**A.** Its IC50 is at most 300 nM.

**Q.** For `CN(C[C@H](O)CNC(C)(C)Cc1ccc2ccccc2c1)S(=O)(=O)c1ccc(-c2cc(C(=O)O)cc([N+](=O)[O-])c2)cc1` [Exp. 3-40, (R)-4′-(N-(2-hydroxy-3-(2-methyl-1-(naphthalen-2-yl)propan-2-ylamino)propyl)-N-methylsulfamoyl)-5-nitrobiphenyl-3-carboxylic acid], which IC50 is on record?
**A.** The IC50 was 300 to 1000 nM.

**Q.** For `CCc1cc(-c2cc(CCC(=O)O)ccc2F)ccc1S(=O)(=O)N(C)C[C@H](O)CNC(C)(C)CC1Cc2ccccc2C1` [Exp. 5-21, (R)-3-(4′-(N-(3-(1-(2,3-dihydro-1H-inden-2-yl)-2-methylpropan-2-ylamino)-2-hydroxypropyl)-N-methylsulfamoyl)-3′-ethyl-6-fluorobiphenyl-3-yl)propionic acid], which IC50 is on record?
**A.** Its IC50 is at most 300 nM.

**Q.** With `CN(C[C@H](O)CNC(C)(C)CC1Cc2ccccc2C1)S(=O)(=O)c1ccc(-c2ccc(CCC(=O)O)c(F)c2)c(Cl)c1` [Exp. 5-59, (R)-3-(2′-chloro-4′-(N-(3-(1-(2,3-dihydro-1H-inden-2-yl)-2-methylpropan-2-ylamino)-2-hydroxypropyl)-N-methylsulfamoyl)-3-fluorobiphenyl-4-yl)propionic acid] as the compound, how does the IC50 read?
**A.** The IC50 was at most 300 nM.

**Q.** `CN(C[C@H](O)CNC(C)(C)Cc1ccc2ccccc2c1)S(=O)(=O)c1cccc(-c2ccc(C(=O)O)c(O)c2)c1` [Exp. 3-24, (R)-3-hydroxy-3′-(N-(2-hydroxy-3-(2-methyl-1-(naphthalen-2-yl)propan-2-ylamino)propyl)-N-methylsulfamoyl)biphenyl-4-carboxylic acid] was tested. Which IC50 did it give?
**A.** The IC50 was 300 to 1000 nM.

**Q.** `CN(C[C@H](O)CNC(C)(C)CC1Cc2ccccc2C1)S(=O)(=O)c1cccc(-c2cccc(C=CC(=O)O)c2)c1` [Exp. 3-58, (R)-3-(3′-(N-(3-(1-(2,3-dihydro-1H-inden-2-yl)-2-methylpropan-2-ylamino)-2-hydroxypropyl)-N-methylsulfamoyl)biphenyl-3-yl)acrylic acid] was tested. Which IC50 did it give?
**A.** The IC50 was at most 300 nM.

**Q.** For `CN(C[C@H](O)CNC(C)(C)Cc1ccc2ccccc2c1)S(=O)(=O)Cc1cccc(-c2ccc(C=CC(=O)O)cc2)c1` [Exp. 3-86, (R)-3-(3′-((N-(2-hydroxy-3-(2-methyl-1-(naphthalen-2-yl)propan-2-ylamino)propyl)-N-methylsulfamoyl)methyl)biphenyl-4-yl)acrylic acid], which IC50 is on record?
**A.** Its IC50 is 300 to 1000 nM.

**Q.** For `Cc1cc(S(=O)(=O)N(C)C[C@H](O)CNC(C)(C)CC2Cc3ccccc3C2)ccc1-c1cccc(CCC(=O)O)c1` [Exp. 3-178, (R)-3-(4′-(N-(3-(1-(2,3-dihydro-1H-inden-2-yl)-2-methylpropan-2-ylamino)-2-hydroxypropyl)-N-methylsulfamoyl) 2′-methylbiphenyl-3-yl)propionic acid], which IC50 is on record?
**A.** The IC50 was at most 300 nM.

**Q.** With `CCc1cc(-c2ccc(CCCC(=O)O)cc2)ccc1S(=O)(=O)N(C)C[C@H](O)CNC(C)(C)CCCc1ccccc1` [Exp. 5-77, (R)-4-(3′-ethyl-4′-(N-(2-hydroxy-3-(2-methyl-5-phenylpentan-2-ylamino)propyl)-N-methylsulfamoyl)biphenyl-4-yl)butanoic acid] as the compound, how does the IC50 read?
**A.** The IC50 was at most 300 nM.

**Q.** Which IC50 does the source give for `CN(C[C@H](O)CNC(C)(C)CC1Cc2ccccc2C1)S(=O)(=O)c1cccc(-c2ccc(NC(=O)CCC(=O)O)cc2)c1` [Exp. 3-59, (R)-4-(3′-(N-(3-(1-(2,3-dihydro-1H-inden-2-yl)-2-methylpropan-2-ylamino)-2-hydroxypropyl)-N-methylsulfamoyl)biphenyl-4-ylamino)-4-oxobutanoic acid] here?
**A.** The IC50 was at most 300 nM.

**Q.** Which IC50 does the source give for `CN(C[C@H](O)CNC(C)(C)CC1Cc2ccccc2C1)S(=O)(=O)c1c(Cl)cc(-c2ccc(CC(=O)O)cc2)cc1Cl` [Exp. 3-140, (R)-2-(3′,5′-dichloro-4′-(N-(3-(1-(2,3-dihydro-1H-inden-2-yl)-2-methylpropan-2-ylamino)-2-hydroxypropyl)-N-methylsulfamoyl)biphenyl-4-yl)acetic acid] here?
**A.** The IC50 was at most 300 nM.

**Q.** Which IC50 does the source give for `Cc1cc(-c2cccc(S(=O)(=O)N(C)C[C@H](O)CNC(C)(C)CC3Cc4ccccc4C3)c2)ccc1C(=O)O` [Exp. 3-52, (R)-3′-(N-(3-(1-(2,3-dihydro-1H-inden-2-yl)-2-methylpropan-2-ylamino)-2-hydroxypropyl)-N-methylsulfamoyl)-3-methylbiphenyl-4-carboxylic acid] here?
**A.** The IC50 was 300 to 1000 nM.

**Q.** For `CN(C[C@H](O)CNC(C)(C)Cc1ccc2ccccc2c1)S(=O)(=O)c1ccc(-c2ccccc2C(=O)O)cc1` [Exp. 3-29, (R)-4′-(N-(2-hydroxy-3-(2-methyl-1-(naphthalen-2-yl)propan-2-ylamino)propyl)-N-methylsulfamoyl)biphenyl-2-carboxylic acid], which IC50 is on record?
**A.** Its IC50 is 300 to 1000 nM.

**Q.** How did the IC50 turn out when `Cc1cc(-c2ccc(S(=O)(=O)N(C)C[C@H](O)CNC(C)(C)Cc3ccc4ccccc4c3)cc2)ccc1C(=O)O` [Exp. 3-33, (R)-4′-(N-(2-hydroxy-3-(2-methyl-1-(naphthalen-2-yl)propan-2-ylamino)propyl)-N-methylsulfamoyl)-3-methylbiphenyl-4-carboxylic acid] was run?
**A.** The IC50 was 300 to 1000 nM.

**Q.** For `CN(C[C@H](O)CNC(C)(C)CCCc1ccccc1)S(=O)(=O)c1c(Cl)cc(-c2cccc(CCC(=O)O)c2)cc1Cl` [Exp. 6-6, (R)-3-(3′,5′-dichloro-4′-(N-(2-hydroxy-3-(2-methyl-5-phenylpentan-2-ylamino)propyl)-N-methylsulfamoyl)biphenyl-3-yl)propionic acid], which IC50 is on record?
**A.** The IC50 was at most 300 nM.

**Q.** For `CCc1cc(-c2ccc(OC)c(CCC(=O)O)c2)ccc1S(=O)(=O)N(C)C[C@H](O)CNC(C)(C)CCCc1ccccc1` [Exp. 5-30, (R)-3-(3′-ethyl-4′-(N-(2-hydroxy-3-(2-methyl-5-phenylpentan-2-ylamino)propyl)-N-methylsulfamoyl)-4-methoxybiphenyl-3-yl)propionic acid], which IC50 is on record?
**A.** Its IC50 is at most 300 nM.
